Source: US10246456B2, “IRAK4 inhibiting agents” (BIOGEN MA INC., priority 2014, dated 2019)

What follows are molecules tested against IRAK4 (Homo sapiens (Human), UniProt Q9NWZ3) (assay: IRAK-4 AlphaScreen biochemical kinase assay). Settings: 1 nM IRAK4, 1 mM ATP, 3.5 h at RT.
Experimental: The biochemical assay is in a AlphaScreen format. The kinase reaction is based on the IRAK-4 phosphorylation of a biotin labeled peptide. The phosphopeptide is incubated with anti-phosphothreonine antibody as well as streptavidin- and protein A-coated beads. Binding of the protein-A coated beads to the antibody and the streptavidin beads to the peptide, leads to an energy transfer from one bead to the other, ultimately producing a luminescent/fluorescent signal.

Sequence of IRAK4 (Q9NWZ3 whole entry, species assumed): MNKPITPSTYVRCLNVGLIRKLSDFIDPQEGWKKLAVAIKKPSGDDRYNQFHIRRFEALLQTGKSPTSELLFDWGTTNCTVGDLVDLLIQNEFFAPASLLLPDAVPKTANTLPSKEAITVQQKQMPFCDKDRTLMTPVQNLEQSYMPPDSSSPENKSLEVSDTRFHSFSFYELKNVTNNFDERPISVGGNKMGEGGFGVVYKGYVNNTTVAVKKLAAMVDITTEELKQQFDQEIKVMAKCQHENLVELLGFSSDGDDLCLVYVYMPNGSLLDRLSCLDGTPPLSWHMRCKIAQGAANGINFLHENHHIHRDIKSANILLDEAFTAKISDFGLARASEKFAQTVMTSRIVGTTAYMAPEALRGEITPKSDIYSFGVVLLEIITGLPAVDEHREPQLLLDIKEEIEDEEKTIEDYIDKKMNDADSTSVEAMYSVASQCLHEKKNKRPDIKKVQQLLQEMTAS

Which IC50 does the source give for `NC(=O)c1cccc(-c2ncc3ccc(-c4cncc(N)c4)cn23)n1` [Example 77, 6-(6-(5-aminopyridin-3-yl)imidazo[1,5-a]pyridin-3-yl)picolinamide] here?
The IC50 was 100 to 1000 nM.

Which IC50 does the source give for `Nc1cncc(-c2ccc3cnc(-c4cccc(C(F)(F)F)n4)n3c2)c1` [Example 78, 5-(3-(6-(trifluoromethyl)pyridin-2-yl)imidazo[1,5-a]pyridin-6-yl)pyridin-3-amine] here?
Its IC50 is under 100 nM.

For `CC(N)c1cccc(-c2ccc3cnc(-c4cccc(C(F)(F)F)n4)n3c2)n1` (centres unmarked) [Example 79, 1-(6-(3-(6-(trifluoromethyl)pyridin-2-yl)imidazo[1,5-a]pyridin-6-yl)pyridin-2-yl)ethanamine], which IC50 is on record?
Its IC50 is under 100 nM.

`NCc1cc(N)cc(-c2ccc3cnn(-c4cccc(C(F)(F)F)n4)c3c2)n1` [Example 80, 2-(aminomethyl)-6-(1-(6-(trifluoromethyl)pyridin-2-yl)-1H-indazol-6-yl)pyridin-4-amine] was tested. Which IC50 did it give?
The IC50 was under 100 nM.

How did the IC50 turn out when `N#CCc1cccc(-n2ncc3ccc(-c4cncc(N)c4)cc32)n1` [Example 81, 2-(6-(6-(5-aminopyridin-3-yl)-1H-indazol-1-yl)pyridin-2-yl)acetonitrile] was run?
Its IC50 is 100 to 1000 nM.

With `Nc1cncc(-c2ccc3cnn(-c4cccc(CC(=O)O)n4)c3c2)c1` [Example 82, 2-(6-(6-(5-aminopyridin-3-yl)-1H-indazol-1-yl)pyridin-2-yl)acetic acid] as the molecule, how does the IC50 read?
Its IC50 is 1000 to 10000 nM.

`Nc1cc(C(=O)O)cc(-c2ccc3cnn(-c4cccc(C(F)(F)F)n4)c3c2)c1` [Example 85, 3-amino-5-(1-(6-(trifluoromethyl)pyridin-2-yl)-1H-indazol-6-yl)benzoic Acid] was tested. Which IC50 did it give?
Its IC50 is under 100 nM.

How did the IC50 turn out when `N#CCNC(=O)c1cc(-c2ccc3cnn(-c4cccc(C(F)(F)F)n4)c3c2)cc(N)n1` [Example 87, 6-amino-N-(cyanomethyl)-4-(1-(6-(trifluoromethyl)pyridin-2-yl)-1H-indazol-6-yl)picolinamide] was run?
Its IC50 is 100 to 1000 nM.

For `NCCNC(=O)c1cc(N)cc(-c2ccc3cnn(-c4cccc(C(F)(F)F)n4)c3c2)c1` [Example 88, 3-amino-N-(2-aminoethyl)-5-(1-(6-(trifluoromethyl)pyridin-2-yl)-1H-indazol-6-yl)benzamide], which IC50 is on record?
Its IC50 is under 100 nM.

For `CC(N)c1cccc(-c2ccc3cnn(-c4cccc(C(F)(F)F)n4)c3c2)c1` (centres unmarked) [Example 89, 1-(3-(1-(6-(trifluoromethyl)pyridin-2-yl)-1H-indazol-6-yl)phenyl)ethanamine], which IC50 is on record?
The IC50 was under 100 nM.

How did the IC50 turn out when `CC(N)c1cncc(-c2ccc3cnn(-c4cccc(C(F)(F)F)n4)c3c2)c1` (centres unmarked) [Example 90, 1-(5-(1-(6-(trifluoromethyl)pyridin-2-yl)-1H-indazol-6-yl)pyridin-3-yl)ethanamine] was run?
Its IC50 is under 100 nM.

How did the IC50 turn out when `CC(N)c1cc(-c2ccc3cnn(-c4cccc(C(F)(F)F)n4)c3c2)ccn1` (centres unmarked) [Example 91, 1-(4-(1-(6-(trifluoromethyl)pyridin-2-yl)-1H-indazol-6-yl)pyridin-2-yl)ethanamine] was run?
The IC50 was 100 to 1000 nM.

How did the IC50 turn out when `N#Cc1cncc(-c2ccc3cnn(-c4cccc(C(F)(F)F)n4)c3c2)n1` [Example 92, 6-(1-(6-(trifluoromethyl)pyridin-2-yl)-1H-indazol-6-yl)pyrazine-2-carbonitrile] was run?
Its IC50 is 1000 to 10000 nM.

`NCc1cncc(-c2ccc3cnn(-c4cccc(C(F)(F)F)n4)c3c2)n1` [Example 93, (6-(1-(6-(trifluoromethyl)pyridin-2-yl)-1H-indazol-6-yl)pyrazin-2-yl)methanamine] was tested. Which IC50 did it give?
Its IC50 is 1000 to 10000 nM.

Which IC50 does the source give for `N#Cc1nccc(-c2ccc3cnn(-c4cccc(C(F)(F)F)n4)c3c2)n1` [Example 94, 4-(1-(6-(trifluoromethyl)pyridin-2-yl)-1H-indazol-6-yl)pyrimidine-2-carbonitrile] here?
The IC50 was 1000 to 10000 nM.

Which IC50 does the source give for `NCc1nccc(-c2ccc3cnn(-c4cccc(C(F)(F)F)n4)c3c2)n1` [Example 95, (4-(1-(6-(trifluoromethyl)pyridin-2-yl)-1H-indazol-6-yl)pyrimidin-2-yl)methanamine] here?
The IC50 was 1000 to 10000 nM.

How did the IC50 turn out when `Nc1cncc(-c2ccc3cnn(-c4cccc(C(F)(F)F)n4)c3c2)n1` [Example 96, 6-(1-(6-(trifluoromethyl)pyridin-2-yl)-1H-indazol-6-yl)pyrazin-2-amine] was run?
The IC50 was 100 to 1000 nM.

How did the IC50 turn out when `FC(F)(F)c1cccc(-n2ncc3ccc(-c4cccc(C5CCCN5)n4)cc32)n1` (centres unmarked) [Example 97, 6-(6-(pyrrolidin-2-yl)pyridin-2-yl)-1-(6-(trifluoromethyl)pyridin-2-yl)-1H-indazole] was run?
The IC50 was 100 to 1000 nM.

`CN1CCCC1c1cccc(-c2ccc3cnn(-c4cccc(C(F)(F)F)n4)c3c2)n1` (centres unmarked) [Example 98, 6-(6-(1-methylpyrrolidin-2-yl)pyridin-2-yl)-1-(6-(trifluoromethyl)pyridin-2-yl)-1H-indazole] was tested. Which IC50 did it give?
The IC50 was 1000 to 10000 nM.

For `Cc1cccc(-c2ncc3ccc(-c4cccc(C(C)N)n4)cn23)n1` (centres unmarked) [Example 99, 1-(6-(3-(6-methylpyridin-2-yl)imidazo[1,5-a]pyridin-6-yl)pyridin-2-yl)ethanamine], which IC50 is on record?
Its IC50 is under 100 nM.

With `Cc1cccc(-n2ncc3c(N)cc(-c4cccc(C(C)N)n4)cc32)n1` (centres unmarked) [Example 100, 6-(6-(1-aminoethyl)pyridin-2-yl)-1-(6-methylpyridin-2-yl)-1H-indazol-4-amine] as the molecule, how does the IC50 read?
The IC50 was under 100 nM.

How did the IC50 turn out when `CNc1cc(-c2cccc(C(C)N)n2)cc2c1cnn2-c1cccc(C)n1` (centres unmarked) [Example 101, 6-(6-(1-aminoethyl)pyridin-2-yl)-N-methyl-1-(6-methylpyridin-2-yl)-1H-indazol-4-amine] was run?
The IC50 was under 100 nM.

Which IC50 does the source give for `Cc1cccc(-n2ncc3c(N(C)C)cc(-c4cccc(C(C)N)n4)cc32)n1` (centres unmarked) [Example 102, 6-(6-(1-aminoethyl)pyridin-2-yl)-N,N-dimethyl-1-(6-methylpyridin-2-yl)-1H-indazol-4-amine] here?
Its IC50 is under 100 nM.

Which IC50 does the source give for `CC(=O)Nc1cc(-c2cccc(C(C)N)n2)cc2c1cnn2-c1cccc(C)n1` (centres unmarked) [Example 103, N-(6-(6-(1-aminoethyl)pyridin-2-yl)-1-(6-methylpyridin-2-yl)-1H-indazol-4-yl)acetamide] here?
Its IC50 is 100 to 1000 nM.

Which IC50 does the source give for `Cc1cccc(-n2ncc3c(CN)cc(-c4cccc(C(C)N)n4)cc32)n1` (centres unmarked) [Example 104, 1-(6-(4-(aminomethyl)-1-(6-methylpyridin-2-yl)-1H-indazol-6-yl)pyridin-2-yl)ethanamine] here?
Its IC50 is 1000 to 10000 nM.

For `CC(=O)NCc1cc(-c2cccc(C(C)N)n2)cc2c1cnn2-c1cccc(C)n1` (centres unmarked) [Example 105, N-((6-(6-(1-aminoethyl)pyridin-2-yl)-1-(6-methylpyridin-2-yl)-1H-indazol-4-yl)methyl)acetamide], which IC50 is on record?
Its IC50 is 100 to 1000 nM.

With `Cc1cccc(-n2ncc3c(Cl)cc(-c4cccc(C(C)N)n4)cc32)n1` (centres unmarked) [Example 106, 1-(6-(4-chloro-1-(6-methylpyridin-2-yl)-1H-indazol-6-yl)pyridin-2-yl)ethanamine] as the molecule, how does the IC50 read?
The IC50 was under 100 nM.

With `Cc1cccc(-n2ncc3c(C4CC4)cc(-c4cccc(C(C)N)n4)cc32)n1` (centres unmarked) [Example 107, 1-(6-(4-cyclopropyl-1-(6-methylpyridin-2-yl)-1H-indazol-6-yl)pyridin-2-yl)ethanamine] as the molecule, how does the IC50 read?
Its IC50 is 100 to 1000 nM.

For `C=C(C)c1cc(-c2cccc(C(C)N)n2)cc2c1cnn2-c1cccc(C)n1` (centres unmarked) [Example 108, 1-(6-(1-(6-methylpyridin-2-yl)-4-(prop-1-en-2-yl)-1H-indazol-6-yl)pyridin-2-yl)ethanamine], which IC50 is on record?
Its IC50 is under 100 nM.

How did the IC50 turn out when `CCc1cc(-c2cccc(C(C)N)n2)cc2c1cnn2-c1cccc(C)n1` (centres unmarked) [Example 109, 1-(6-(4-ethyl-1-(6-methylpyridin-2-yl)-1H-indazol-6-yl)pyridin-2-yl)ethanamine] was run?
The IC50 was 100 to 1000 nM.

How did the IC50 turn out when `Cc1cccc(-n2ncc3c(C(C)C)cc(-c4cccc(C(C)N)n4)cc32)n1` (centres unmarked) [Example 110, 1-(6-(4-isopropyl-1-(6-methylpyridin-2-yl)-1H-indazol-6-yl)pyridin-2-yl)ethanamine] was run?
The IC50 was 100 to 1000 nM.

For `Cc1cccc(-n2ncc3c(C(F)(F)F)cc(-c4cccc(C(C)N)n4)cc32)n1` (centres unmarked) [Example 111, 1-(6-(1-(6-methylpyridin-2-yl)-4-(trifluoromethyl)-1H-indazol-6-yl)pyridin-2-yl)ethanamine], which IC50 is on record?
The IC50 was 100 to 1000 nM.

`COC(=O)c1cc(-c2cccc(C(C)N)n2)cc2c1cnn2-c1cccc(C)n1` (centres unmarked) [Example 112, methyl 6-(6-(1-aminoethyl)pyridin-2-yl)-1-(6-methylpyridin-2-yl)-1H-indazole-4-carboxylate] was tested. Which IC50 did it give?
Its IC50 is under 100 nM.

How did the IC50 turn out when `Cc1cccc(-n2ncc3c(C(=O)O)cc(-c4cccc(C(C)N)n4)cc32)n1` (centres unmarked) [Example 113, 6-(6-(1-aminoethyl)pyridin-2-yl)-1-(6-methylpyridin-2-yl)-1H-indazole-4-carboxylic acid] was run?
The IC50 was 100 to 1000 nM.

How did the IC50 turn out when `Cc1cccc(-n2ncc3c(CO)cc(-c4cccc(C(C)N)n4)cc32)n1` (centres unmarked) [Example 114, (6-(6-(1-aminoethyl)pyridin-2-yl)-1-(6-methylpyridin-2-yl)-1H-indazol-4-yl)methanol] was run?
Its IC50 is under 100 nM.

How did the IC50 turn out when `CNC(=O)c1cc(-c2cccc(C(C)N)n2)cc2c1cnn2-c1cccc(C)n1` (centres unmarked) [Example 115, 6-(6-(1-aminoethyl)pyridin-2-yl)-N-methyl-1-(6-methylpyridin-2-yl)-1H-indazole-4-carboxamide] was run?
The IC50 was under 100 nM.

Which IC50 does the source give for `CNC(C)c1cccc(-c2ccc3cnn(-c4cccc(C)n4)c3c2)n1` (centres unmarked) [Example 116, N-methyl-1-(6-(1-(6-methylpyridin-2-yl)-1H-indazol-6-yl)pyridin-2-yl)ethanamine] here?
The IC50 was 100 to 1000 nM.

How did the IC50 turn out when `CC(N)c1cccc(-c2ccc3cnn(-c4cccc(C5CC5)n4)c3c2)n1` (centres unmarked) [Example 119, 1-(6-(1-(6-cyclopropylpyridin-2-yl)-1H-indazol-6-yl)pyridin-2-yl)ethanamine] was run?
Its IC50 is under 100 nM.

How did the IC50 turn out when `CCc1cccc(-n2ncc3ccc(-c4cccc(C(C)N)n4)cc32)n1` (centres unmarked) [Example 120, 1-(6-(1-(6-ethylpyridin-2-yl)-1H-indazol-6-yl)pyridin-2-yl)ethanamine] was run?
The IC50 was under 100 nM.

How did the IC50 turn out when `CC(C)c1cccc(-n2ncc3ccc(-c4cccc(C(C)N)n4)cc32)n1` (centres unmarked) [Example 121, 1-(6-(1-(6-isopropylpyridin-2-yl)-1H-indazol-6-yl)pyridin-2-yl)ethanamine] was run?
The IC50 was under 100 nM.

Which IC50 does the source give for `CC(N)c1cccc(-c2ccc3cnn(-c4ccccn4)c3c2)n1` (centres unmarked) [Example 122, 1-(6-(1-(pyridin-2-yl)-1H-indazol-6-yl)pyridin-2-yl)ethanamine] here?
Its IC50 is 100 to 1000 nM.
